Patent publication US10221426B2, “Constitutively active PYR/PYL receptor proteins for improving plant stress tolerance” (The Regents of the University of California, priority 2009, dated 2019)

Columns and labels:
PYL3-HAB1 = biological target: T1, PYL3-HAB1 (Arabidopsis thaliana, UniProt Q9SSM7); test: Yeast two-hybrid BD-PYL3 / AD-HAB1 interaction; assay type: cell-based; conditions: 10 μM
T1 construct: BD-PYR/PYL fusion proteins were constructed in the same manner as for BD-PYR1 above; expressed in transfected cells; host or cells: yeast (Y190, as for BD-PYR1)
T1 sequence (Q9SSM7 1-209): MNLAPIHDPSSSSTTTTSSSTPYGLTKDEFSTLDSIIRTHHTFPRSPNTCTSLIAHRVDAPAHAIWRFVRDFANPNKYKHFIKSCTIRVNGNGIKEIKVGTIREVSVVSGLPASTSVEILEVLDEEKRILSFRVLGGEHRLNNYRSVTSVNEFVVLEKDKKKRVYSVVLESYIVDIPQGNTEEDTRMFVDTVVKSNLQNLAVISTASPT
T1 sequence (Q9CAJ0 23-511 partner): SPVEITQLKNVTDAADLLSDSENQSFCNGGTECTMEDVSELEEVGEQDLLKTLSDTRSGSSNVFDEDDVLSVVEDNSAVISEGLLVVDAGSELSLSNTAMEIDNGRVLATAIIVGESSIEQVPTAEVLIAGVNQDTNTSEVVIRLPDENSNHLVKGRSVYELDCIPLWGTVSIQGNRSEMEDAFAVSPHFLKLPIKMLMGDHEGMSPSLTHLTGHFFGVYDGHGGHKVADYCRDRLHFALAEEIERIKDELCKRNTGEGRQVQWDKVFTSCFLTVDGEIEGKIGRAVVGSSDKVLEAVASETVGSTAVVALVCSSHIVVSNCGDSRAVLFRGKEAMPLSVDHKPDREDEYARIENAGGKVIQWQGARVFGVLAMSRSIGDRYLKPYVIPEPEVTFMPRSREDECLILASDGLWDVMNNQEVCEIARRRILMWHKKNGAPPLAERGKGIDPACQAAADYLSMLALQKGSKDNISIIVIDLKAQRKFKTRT
Method: (§1) Given that PYR1 is necessary for pyrabactin action and is a predicted ligand-binding protein, we hypothesized that pyrabactin agonizes ABA signaling by inducing a protein-protein interaction between PYR1 and a downstream effector. To test this, ˜2 million prey cDNA clones were screened against a PYR1 Y2H bait construct on media containing 10 μM pyrabactin. To create the PYR1 Y2H bait construct, the Pyr1 open reading frame was PCR amplified from genomic DNA and cloned to pGem-T easy vector (Promega). After sequence confirmation, the Pyr1 ORF was then cloned in-frame between EcoRI and SalI sites of the pBD-GAL4 Cam vector (Stratagene) and transformed into yeast strain Y190. For the screen, an etiolated seedling cDNA library (J. Kim, K., Harter, A., Theologis, Proc Natl Acad Sci USA 94, 11786 (Oct. 28, 1997)) (ABRC stock CD4-22) was used. The cDNA library was first converted from phage to plasmid DNA, yielding 7.6×10^7 transformants. Plasmid DNA prepared from library was then used to transform Y190 as described in the GAL4 Two-Hybrid system manual (Stratagene). For each screen, 40 μg of prey plasmid was transformed into 1 ml of competent Y190 cell harboring bait construct and then grown on SD agar plates lacking His, Leu, and Trp, but containing 15 mM 3-AT and 10 μM pyrabactin. After 4 days incubation at 30° C., well-grown colonies were rescued and interactions validated using filter lift assay or chloroform-agarose overlay method and X-Gal staining. This identified two pyrabactin-dependent hits which sequencing determined encoded cDNAs for the PP2C HAB1, a close relative of the well-characterized ABA response factor ABI1 (A. Saez et al., The Plant Journal 37, 354 (2004); N. Leonhardt et al., THE PLANT CELL 16, 596 (2004)). Next, Y2H strains expressing an AD-HAB1 fusion protein and a BD-PYR1 fusion protein were grown on plates and tested for interactions in response to various compounds, all at 10 μM except for epi-brassinolide (50 nM) and dimethyl sulfoxide (DMSO) (carrier solvent, 1%). […] Thus, PYR1 interacts with HAB1 in a (+)-ABA dependent fashion.
(§2) To see if ABA and pyrabactin responsiveness is unique to PYR1, we tested 11 of the 13 PYL proteins as described above, using Y2H strains expressing an AD-HAB1 fusion protein and a BD-PYR/PYL fusion protein (listed at the left of FIG. 3A). BD-PYR/PYL fusion proteins were constructed in the same manner as for BD-PYR1 above. […] Of these, only Pyr1 is highly transcribed in seeds, which likely explains why mutations in Pyr1 cause the seeds to be insensitive to pyrabactin. […] However the interactions of PYLs 5-12 with the PP2Cs are indicative that the entire protein family is likely to share a similar mechanism of action involving PP2C modulation, as we describe below. Thus, we conclude that entire family modulates ABA responses via PP2C interactions.
The yeast strains expressing PYR/PYL receptors and type 2 C protein phosphatases were also used to screen HPLC-fractionated plant extracts for the presence of endogenous compounds that activate PYL/PYL receptors PYR1, PYL2, PYL3, and/or PYL4. HPLC fractionation of extracts was used to identify compounds different from abscisic acid (the known agonist). […] Purification of the agonist was achieved via multiple rounds of chromatographic separation coupled to yeast two hybrid assays that informed the fractions to move forward at each step of the purification. The structure of the purified agonist was deduced by X-ray crystallography of crystalline purified agonist.

PYL4-HAB1 = biological target: T2, PYL4-HAB1 (Arabidopsis thaliana, UniProt O80920); test: Yeast two-hybrid BD-PYL4 / AD-HAB1 interaction; assay type: cell-based; conditions: 10 μM
T2 construct: BD-PYR/PYL fusion proteins were constructed in the same manner as for BD-PYR1 above; expressed in transfected cells; host or cells: yeast (Y190, as for BD-PYR1)
T2 sequence (O80920 1-207): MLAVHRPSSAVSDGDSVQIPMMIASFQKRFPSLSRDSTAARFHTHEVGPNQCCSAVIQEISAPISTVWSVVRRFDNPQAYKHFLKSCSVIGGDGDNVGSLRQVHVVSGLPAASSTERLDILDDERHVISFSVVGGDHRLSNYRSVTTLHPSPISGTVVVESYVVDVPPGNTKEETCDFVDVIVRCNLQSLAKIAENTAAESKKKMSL
T2 sequence (Q9CAJ0 23-511 partner): T1 sequence (Q9CAJ0 23-511 partner)
Method: as §1
as §2, with “Thus, we conclude that entire family modulates ABA responses via PP2C interactions.” left out

[1] = biological target: T3, HAB1 in the presence of PYL4 (Arabidopsis thaliana, UniProt O80920); test: PP2C phosphatase assay (pNPP), GST-HAB1 in the presence of PYL4; assay type: biochemical; conditions: recombinant PYL4 refolded from inclusion bodies
T3 construct: vector pHB3; made in house
T3 sequence (O80920 1-207): T2 sequence (O80920 1-207)
T3 sequence (Q9CAJ0 23-511 partner): T1 sequence (Q9CAJ0 23-511 partner)

PYR1-HAB1 = biological target: T4, PYR1-HAB1 (Arabidopsis thaliana, UniProt O49686); test: Yeast two-hybrid BD-PYR1 / AD-HAB1 interaction, X-gal stain; assay type: cell-based; conditions: 10 μM, except epi-brassinolide (50 nM)
T4 construct: the Pyr1 open reading frame was PCR amplified from genomic DNA; expressed in transfected cells; host or cells: yeast strain Y190
T4 sequence (O49686 1-191): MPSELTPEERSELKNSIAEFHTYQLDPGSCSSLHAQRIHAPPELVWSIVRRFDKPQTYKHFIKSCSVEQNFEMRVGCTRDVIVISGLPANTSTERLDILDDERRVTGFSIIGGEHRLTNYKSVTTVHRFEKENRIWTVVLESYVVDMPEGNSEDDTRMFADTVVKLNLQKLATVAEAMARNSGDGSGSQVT
T4 sequence (Q9CAJ0 23-511 partner): T1 sequence (Q9CAJ0 23-511 partner)
Method: as §1

Row | Structure (SMILES) | PYL3-HAB1 interaction by X-gal stain (PYL3-HAB1) | PYL4-HAB1 interaction by X-gal stain (PYL4-HAB1) | inhibition of HAB1 phosphatase activity in the presence of PYL4 [1] | PYR1-HAB1 interaction by X-gal stain (PYR1-HAB1)
1 | CC1=CC(=O)CC(C)(C)C1(O)/C=C/C(C)=C\C(=O)O (single isomer, unassigned; (+)) [(+)-ABA] | respond | respond | inhibits HAB1 phosphatase activity | strong interactions
2 | CC1=CC(=O)CC(C)(C)[C@@]1(O)/C=C/C(C)=C\C(=O)O [ABA, Abscisic acid] | interact with HAB1 in an ABA-stimulated manner | interact with HAB1 in an ABA-stimulated manner | saturable inhibition | –
3 | O=S(=O)(NCc1ccccn1)c1ccc(Br)c2ccccc12 [pyrabactin] | promotes interactions | – | – | promotes interactions
